Results: US6436952B1, “Benzonaphthyridine-N-oxides comprising a PDE3 and PDE4 inhibiting activity” (BYK Gulden Lomberg Chemische Fabrik GmbH, priority 1998, dated 2002)

How the values were obtained:
PDE4 (cAMP-specific) = assay: Inhibition of PDE isoenzymes: PDE4 in cytosol of human polymorphonuclear leukocytes; type: biochemical; conditions: cytosol of human PMNL, cAMP as substrate, motapizone (1 μM) present
Description: (§1) The PDE activity was determined according to Thompson et al. (1) with some modifications (2). The test samples contained 40 mM tris HCl (pH 7.4), 5 mM MgCl2, 0.5 μM cAMP or cGMP, [^3H]cAMP or [^3H]cGMP (about 50 000 cpm/sample), the PDE isoenzyme-specific additions described in greater detail below, the indicated concentrations of inhibitor and an aliquot of the enzyme solution in a total sample volume of 200 μl. […] After preincubation at 37° C. for 5 minutes, the reaction was started by addition of the substrate (cAMP or cGMP). The samples were incubated at 37° C. for a further 15 min. The reaction was terminated by addition of 50 μl of 0.2N HCl. After cooling on ice for 10 minutes and addition of 25 μg of 5′-nucleotidase (snake venom from Crotalus atrox), the mixture was again incubated at 37° C. for 10 min and the samples were then applied to QAE Sephadex A-25 columns. The columns were eluted with 2 ml of 30 mM ammonium formate (pH 6.0). The radioactivity of the eluate was measured and corrected by the corresponding blank values. The proportion of hydrolyzed nucleotide in no case exceeded 20% of the original substrate concentration. […]
(§2) The lC50 values were determined from the concentration-inhibition curves by nonlinear regression using the GraphPad InPlot™ program (GraphPad Software Inc., Philadelphia, USA).

PDE3 (cGMP-inhibited) = biological target: T1, PDE3 (cGMP-inhibited) (Homo sapiens, UniProt Q14432); assay: Inhibition of PDE isoenzymes: PDE3 in homogenates of human blood platelets; type: biochemical; conditions: cAMP as substrate, read-out: PDE3 [-log IC50, mol/l] (converted)
T1 construct: were investigated in homogenates of human blood platelets; from tissue; host or cells: homogenate of human blood platelets
Description: as §1, §2

T1 sequence (Q14432 whole entry): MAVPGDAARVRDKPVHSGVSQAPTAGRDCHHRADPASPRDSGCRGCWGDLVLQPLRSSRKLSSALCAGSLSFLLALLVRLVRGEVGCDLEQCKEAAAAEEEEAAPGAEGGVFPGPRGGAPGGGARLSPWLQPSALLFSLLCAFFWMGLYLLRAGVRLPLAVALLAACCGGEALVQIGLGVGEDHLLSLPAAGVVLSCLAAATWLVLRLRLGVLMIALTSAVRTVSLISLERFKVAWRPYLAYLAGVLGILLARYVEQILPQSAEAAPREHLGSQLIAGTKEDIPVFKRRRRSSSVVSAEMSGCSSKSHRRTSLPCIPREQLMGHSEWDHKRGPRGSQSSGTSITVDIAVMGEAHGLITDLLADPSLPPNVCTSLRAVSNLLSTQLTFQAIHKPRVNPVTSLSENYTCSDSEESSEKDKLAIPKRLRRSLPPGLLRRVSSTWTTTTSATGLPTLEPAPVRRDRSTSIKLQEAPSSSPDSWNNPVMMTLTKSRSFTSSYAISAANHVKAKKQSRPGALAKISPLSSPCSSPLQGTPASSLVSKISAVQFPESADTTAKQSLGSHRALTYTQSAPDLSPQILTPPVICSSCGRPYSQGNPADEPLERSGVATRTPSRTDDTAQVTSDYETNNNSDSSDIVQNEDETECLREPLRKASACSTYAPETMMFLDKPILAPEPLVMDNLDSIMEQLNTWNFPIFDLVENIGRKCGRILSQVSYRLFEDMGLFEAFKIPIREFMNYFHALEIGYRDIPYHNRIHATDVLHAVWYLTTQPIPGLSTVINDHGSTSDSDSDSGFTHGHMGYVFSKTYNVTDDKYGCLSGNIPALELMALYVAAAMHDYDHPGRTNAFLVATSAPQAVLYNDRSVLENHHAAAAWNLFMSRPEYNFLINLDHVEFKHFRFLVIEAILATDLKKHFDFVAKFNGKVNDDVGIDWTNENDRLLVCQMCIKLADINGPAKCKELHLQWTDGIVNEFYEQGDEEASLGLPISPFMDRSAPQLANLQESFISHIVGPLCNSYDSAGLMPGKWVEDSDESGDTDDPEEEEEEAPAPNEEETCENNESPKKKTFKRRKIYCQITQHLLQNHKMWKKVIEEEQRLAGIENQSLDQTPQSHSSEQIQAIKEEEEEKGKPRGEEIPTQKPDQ

For `CCOc1cc2c(cc1OC)C(c1ccc(-c3nnn(CC)n3)cc1)=NC1CC[N+](C)([O-])CC21` (stereo not drawn) [Compound 1, cis-9-Ethoxy-8-methoxy-2-methyl-6-[4-(2H-2-ethyltetrazol-5-yl)phenyl]-1,2,3,4,4a,10b-hexahydrobenzo[c][1,6]naohthyridine N-2-Oxide], which “PDE4 [-log IC50, mol/l]” value (PDE4 (cAMP-specific)) is on record?
Its value is 7.53 -log IC50, mol/l.

What about the IC50 (PDE3 (cGMP-inhibited)) of the same compound?
Its IC50 is 776 nM.

And the melting point?
Its melting point is 168 to 170 °C.
